Measured values as given in ChEMBL document CHEMBL3217415, “(Pd/C-mediated)couplingiodocyclizationcoupling strategy in discovery of novel PDE4 inhibitors: a new synthesis of pyrazolopyrimidines” (Medchemcomm, 2012).
Each block holds one compound with its values, some of them ahead of it. Active and inactive are the calls of the source. No cut-off for these calls is given here.

Experiments:
Danio rerio [1] = species: Danio rerio; assay: Toxicity in zebrafish embryo assessed as effect on locomotory activity at 100 uM; format: organism-based; details: in vivo
Danio rerio [2] = species: Danio rerio; assay: Toxicity in zebrafish embryo assessed as mortality at 100 uM after 1 to 24 hrs; format: organism-based; details: in vivo
[3] = target: T1, 3',5'-cyclic-AMP phosphodiesterase 4B (Homo sapiens, UniProt Q07343); assay: Inhibition of His-tagged recombinant human PDE4B expressed in baculovirus infected sf9 cells using cAMP as substrate at 30 uM preincubated for 15 mins followed by substrate addition measured after 1 hr by luminescence assay
T1 sequence (Q07343 whole entry): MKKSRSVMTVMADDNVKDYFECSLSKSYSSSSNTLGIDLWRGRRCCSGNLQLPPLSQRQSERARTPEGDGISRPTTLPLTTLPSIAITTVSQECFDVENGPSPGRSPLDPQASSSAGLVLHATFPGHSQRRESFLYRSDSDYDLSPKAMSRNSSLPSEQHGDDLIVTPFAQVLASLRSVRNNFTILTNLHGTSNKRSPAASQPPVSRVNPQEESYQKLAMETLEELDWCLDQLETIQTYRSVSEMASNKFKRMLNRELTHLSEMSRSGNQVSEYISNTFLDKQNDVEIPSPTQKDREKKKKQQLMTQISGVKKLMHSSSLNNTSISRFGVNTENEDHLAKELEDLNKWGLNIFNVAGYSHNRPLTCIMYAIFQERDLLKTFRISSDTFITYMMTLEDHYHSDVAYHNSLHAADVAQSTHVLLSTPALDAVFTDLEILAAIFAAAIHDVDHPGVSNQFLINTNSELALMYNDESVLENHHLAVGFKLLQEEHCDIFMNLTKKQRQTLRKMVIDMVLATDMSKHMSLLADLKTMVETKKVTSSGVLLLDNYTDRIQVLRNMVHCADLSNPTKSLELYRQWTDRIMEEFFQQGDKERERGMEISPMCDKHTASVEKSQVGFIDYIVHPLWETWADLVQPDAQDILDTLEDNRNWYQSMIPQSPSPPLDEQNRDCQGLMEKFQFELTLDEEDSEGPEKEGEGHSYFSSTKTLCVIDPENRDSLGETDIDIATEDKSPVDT

Danio rerio [4] = species: Danio rerio; assay: Toxicity in zebrafish embryo assessed as lordosis at 10 to 20 uM after 1 to 24 hrs; format: organism-based; details: in vivo
Danio rerio [5] = species: Danio rerio; assay: Toxicity in zebrafish embryo assessed as increase in abnormal lesions at 10 to 20 uM after 24 hrs; format: organism-based; details: in vivo
Danio rerio [6] = species: Danio rerio; assay: Toxicity in zebrafish embryo assessed as effect on locomotory activity at 10 to 20 uM after 1 to 24 hrs; format: organism-based; details: in vivo
Danio rerio [7] = species: Danio rerio; assay: Toxicity in zebrafish embryo assessed as cardiac arrhythmia at 10 to 20 uM after 24 hrs by compound microscopy; format: organism-based, Heart; details: in vivo
RAW264.7 = assay: Inhibition of LPS-induced TNFalpha production in mouse RAW264.7 cells pretreated for 30 mins before LPS challenge by ELISA assay; format: functional, cell-based
Danio rerio [8] = species: Danio rerio; assay: Toxicity in zebrafish embryo assessed as mortality at 10 to 20 uM after 1 to 24 hrs; format: organism-based; details: in vivo
[9] = target: T1, 3',5'-cyclic-AMP phosphodiesterase 4B; assay: Inhibition of PDE4B1 (unknown origin) transfected in HEK293 cells assessed as forskolin-induced cAMP accumulation pretreated for 30 mins before forskolin challenge by luciferase reporter gene assay; format: cell-based
[10] = target: T1, 3',5'-cyclic-AMP phosphodiesterase 4B; assay: Inhibition of His-tagged recombinant human PDE4B1 expressed in baculovirus infected sf9 cells using cAMP as substrate preincubated for 15 mins followed by substrate addition measured after 1 hr by luminescence assay
[11] = target: 3',5'-cyclic-AMP phosphodiesterase 4A (Homo sapiens, UniProt P27815); assay: Inhibition of PDE4A4 (unknown origin) transfected in HEK293 cells assessed as forskolin-induced cAMP accumulation pretreated for 30 mins before forskolin challenge by luciferase reporter gene assay; format: cell-based
3',5'-cyclic-AMP phosphodiesterase 4A, sequence (P27815 whole entry): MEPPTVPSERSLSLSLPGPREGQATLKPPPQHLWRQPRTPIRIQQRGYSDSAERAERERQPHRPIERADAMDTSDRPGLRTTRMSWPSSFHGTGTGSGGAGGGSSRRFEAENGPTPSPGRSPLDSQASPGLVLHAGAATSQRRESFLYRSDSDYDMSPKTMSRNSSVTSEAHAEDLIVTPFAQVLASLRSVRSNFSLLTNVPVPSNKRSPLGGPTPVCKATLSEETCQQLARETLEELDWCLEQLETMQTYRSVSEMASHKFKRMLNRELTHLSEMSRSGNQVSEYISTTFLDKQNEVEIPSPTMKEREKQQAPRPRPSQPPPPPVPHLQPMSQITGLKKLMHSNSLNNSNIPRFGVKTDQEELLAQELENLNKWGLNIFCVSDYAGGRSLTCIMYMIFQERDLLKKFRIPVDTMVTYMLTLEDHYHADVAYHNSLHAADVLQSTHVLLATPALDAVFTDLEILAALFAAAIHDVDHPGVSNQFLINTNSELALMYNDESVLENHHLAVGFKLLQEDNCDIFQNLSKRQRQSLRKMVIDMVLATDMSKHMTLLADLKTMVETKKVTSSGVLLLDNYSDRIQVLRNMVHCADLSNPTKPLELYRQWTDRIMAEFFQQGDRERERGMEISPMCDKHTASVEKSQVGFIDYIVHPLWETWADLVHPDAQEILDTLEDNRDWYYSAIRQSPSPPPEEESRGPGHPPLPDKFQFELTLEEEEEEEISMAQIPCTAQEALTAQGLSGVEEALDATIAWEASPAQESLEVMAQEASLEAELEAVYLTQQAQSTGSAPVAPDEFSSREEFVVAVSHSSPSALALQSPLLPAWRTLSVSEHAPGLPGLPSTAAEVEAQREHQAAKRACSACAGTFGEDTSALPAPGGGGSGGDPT

Danio rerio [12] = species: Danio rerio; assay: Toxicity in zebrafish embryo assessed as effect on locomotory activity at 10 uM after 6 hrs; format: organism-based; details: in vivo
[13] = target: T2, 3',5'-cyclic-AMP phosphodiesterase 4D (Homo sapiens, UniProt Q08499); assay: Inhibition of PDE4D3 (unknown origin) transfected in HEK293 cells assessed as forskolin-induced cAMP accumulation pretreated for 30 mins before forskolin challenge by luciferase reporter gene assay; format: cell-based
T2 sequence (Q08499 whole entry): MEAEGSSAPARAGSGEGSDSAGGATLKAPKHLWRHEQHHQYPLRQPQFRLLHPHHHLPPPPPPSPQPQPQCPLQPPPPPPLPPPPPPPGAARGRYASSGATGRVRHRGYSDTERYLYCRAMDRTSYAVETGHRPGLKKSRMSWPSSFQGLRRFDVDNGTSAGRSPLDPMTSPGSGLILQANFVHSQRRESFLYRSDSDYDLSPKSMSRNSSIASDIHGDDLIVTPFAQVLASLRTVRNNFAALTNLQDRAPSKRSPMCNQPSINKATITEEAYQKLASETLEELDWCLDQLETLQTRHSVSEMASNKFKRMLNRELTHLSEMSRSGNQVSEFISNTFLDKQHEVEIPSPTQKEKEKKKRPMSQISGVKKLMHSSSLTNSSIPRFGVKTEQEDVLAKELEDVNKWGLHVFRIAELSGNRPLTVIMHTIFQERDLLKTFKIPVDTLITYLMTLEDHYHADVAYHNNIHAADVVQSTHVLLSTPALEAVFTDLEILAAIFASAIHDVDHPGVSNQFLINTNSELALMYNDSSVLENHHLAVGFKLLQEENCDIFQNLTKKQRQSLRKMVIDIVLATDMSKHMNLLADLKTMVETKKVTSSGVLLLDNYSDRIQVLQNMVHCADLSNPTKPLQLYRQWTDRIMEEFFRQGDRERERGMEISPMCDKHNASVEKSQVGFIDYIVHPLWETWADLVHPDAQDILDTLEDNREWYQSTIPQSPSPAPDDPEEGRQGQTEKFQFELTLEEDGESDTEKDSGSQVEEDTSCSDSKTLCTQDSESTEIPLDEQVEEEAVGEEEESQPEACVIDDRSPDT

Danio rerio [14] = species: Danio rerio; assay: Toxicity in zebrafish embryo assessed as effect on locomotory activity at 20 uM after 24 hrs; format: organism-based; details: in vivo
[15] = target: T2, 3',5'-cyclic-AMP phosphodiesterase 4D; assay: Inhibition of human PDE4D2 using cAMP substrate preincubated for 15 mins followed by substrate addition measured after 1 hr by luminescence assay

SMILES: CC(C)(C)c1ccc(C(O)CCCN2CCC(C(O)(c3ccccc3)c3ccccc3)CC2)cc1 (stereo not drawn) [TERFENADINE]
- Activity (Danio rerio [1]): Toxic
- Activity (Danio rerio [2]): Toxic

SMILES: COc1ccc(C2CNC(=O)C2)cc1OC1CCCC1 (stereo not drawn) [ROLIPRAM]
- Activity (Danio rerio [4]): Toxic
- Activity (Danio rerio [5]): Toxic
- Activity (Danio rerio [6]): Toxic
- Activity (Danio rerio [7]): Non-toxic
- IC50 (RAW264.7): 190 nM
- Activity (Danio rerio [8]): Toxic

SMILES: NC(=O)c1cccc(-c2c(-c3ccccc3)oc(=O)c3c2nn2c(-c4ccccc4)ccnc32)c1
- EC50 [9]: 6320 nM
- inhibition [3]: 93%
- Activity (Danio rerio [5]): Non-toxic
- IC50 [10]: 1330 nM
- EC50 [11]: 11700 nM
- Activity (Danio rerio [7]): Non-toxic
- Activity (Danio rerio [12]): Toxic
- IC50 (RAW264.7): 450 nM
- EC50 [13]: 9620 nM
- Activity (Danio rerio [8]): Non-toxic
- Activity (Danio rerio [14]): Non-toxic
- IC50 [15]: 2840 nM

SMILES: CCCCCC#Cc1c(CCCCCC)oc(=O)c2c1nn1c(-c3ccccc3)ccnc21
- inhibition [3]: 50%

SMILES: CCCCCCc1oc(=O)c2c(nn3c(-c4ccccc4)ccnc23)c1/C=C/C(=O)OC(C)(C)C
- inhibition [3]: inactive

Results, then the compound that gave them:

- inhibition [3]: 66%
SMILES: O=c1oc(-c2ccccc2)c(-c2ccc(F)cc2)c2nn3c(-c4ccccc4)ccnc3c12

- inhibition [3]: inactive
SMILES: CCCCCCc1oc(=O)c2c(nn3c(-c4ccccc4)ccnc23)c1/C=C/C(=O)OCC

- inhibition [3]: 50%
SMILES: CCCCCC#Cc1c(-c2ccccc2)oc(=O)c2c1nn1c(-c3ccccc3)ccnc21

- inhibition [3]: 74%
SMILES: O=c1oc(-c2ccccc2)c(-c2cccc([N+](=O)[O-])c2)c2nn3c(-c4ccccc4)ccnc3c12

- inhibition [3]: 74%
SMILES: O=c1oc(-c2ccccc2)c(-c2cnc3ccccc3c2)c2nn3c(-c4ccccc4)ccnc3c12

- inhibition [3]: 85%
SMILES: CCCCCCc1oc(=O)c2c(nn3c(-c4ccccc4)ccnc23)c1-c1cccc(C(N)=O)c1
